Data on 15 molecules can be found in patent publication US11396504B2, “Alkoxybenzo-five-membered (six-membered) heterocyclic amine compound and pharmaceutical use thereof” (FUDAN UNIVERSITY, priority 2018, dated 2022).

Test [1] deals with T1, Sphingomyelin Synthase 2 (SMS2 pure enzyme) (Homo sapiens, UniProt Q8NHU3).
T1 construct: Yu, Cao research group of National Protein Science Center (Shanghai)
T1 sequence (Q8NHU3 1-365): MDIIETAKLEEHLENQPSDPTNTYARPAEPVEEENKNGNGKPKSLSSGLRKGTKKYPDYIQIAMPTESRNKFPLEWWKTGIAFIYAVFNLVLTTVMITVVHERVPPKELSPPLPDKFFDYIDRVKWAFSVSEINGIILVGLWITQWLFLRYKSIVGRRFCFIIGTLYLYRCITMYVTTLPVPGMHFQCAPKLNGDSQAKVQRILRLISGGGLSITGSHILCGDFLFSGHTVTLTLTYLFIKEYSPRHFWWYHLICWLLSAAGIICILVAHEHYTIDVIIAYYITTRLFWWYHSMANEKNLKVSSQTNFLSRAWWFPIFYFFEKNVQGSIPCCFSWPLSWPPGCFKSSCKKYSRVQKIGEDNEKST
Put plainly: In vitro SMS2 pure enzyme inhibition, HPLC fluorogenic quantitative detecting method (C6-NBD-Ceramide to C6-NBD-SM). The class given is biochemical. Conditions: for IC50: SMS2 pure enzyme, five concentrations, three parallel groups, experimental value; for Selectivity ratio: SMS1 IC50 relative to SMS2 IC50. As to the method: Add […] SMS2 pure enzyme DDM solution (total protein content 1.5 μg/μL), 1 μL test compound in DMSO solution or blank DMSO solution, 79.7 μL DDM buffer to 1.5 mL Eppendorf tube, vortex 30 seconds, let stand at room temperature for 5 min. Then add 20 μL DDM buffer containing 1 μL DMPC in ethanol (40 mmol/L) and 1 μL C6-NBD-Ceramide in DMSO (1.16 mmol/L). After vortexing for 30 seconds, Incubate for 0.5 h under water bath at 37° C. Then remove, add 200 μL of absolute ethanol, and vortex for 30 seconds. Take out 200 μL of the mixture and store it at 4° C. for high performance liquid chromatography analysis.
(§1) Using the same HPLC fluorogenic quantitative detecting method as reference (Xiaodong Deng; Hong Sun; et al. Analytical Letters, 2012, 45:12, 1581-1589) to analyses samples obtained above. Analysize and record peak areas of C6-NBD-SM (Asm) and C6-NBD-Ceramide (Acer) of each sample from blank group, positive control group (compound D2) and under tested compound group. Calculate inhibition rate from the formula below: […]
The DMSO stock solution of under tested compound (6 mM) was diluted stepwise into five concentration gradient. 1 μL solution of each concentration was added into the trial system to prepare samples with the method mentioned in the first step of application case 15. The Asm values of the five concentration solution of tested compound were measured (compound D2 is a positive control), and the inhibition rate under the five concentration were calculated and fitted to obtain median inhibitory concentration (IC50). Each compound was measured three parallel groups. SMS2 median inhibitory concentration and SMS1 single inhibitory concentration (50 μM) of Scheme I-1˜I-38, and SMS1 median inhibitory concentration of some compounds are listed below in Table 1.

The target of test [2] is T2, Sphingomyelin Synthase 1 (SMS1 pure enzyme) (Homo sapiens, UniProt Q86VZ5).
T2 construct: Yu, Cao research group of National Protein Science Center (Shanghai)
T2 sequence (Q86VZ5 1-413): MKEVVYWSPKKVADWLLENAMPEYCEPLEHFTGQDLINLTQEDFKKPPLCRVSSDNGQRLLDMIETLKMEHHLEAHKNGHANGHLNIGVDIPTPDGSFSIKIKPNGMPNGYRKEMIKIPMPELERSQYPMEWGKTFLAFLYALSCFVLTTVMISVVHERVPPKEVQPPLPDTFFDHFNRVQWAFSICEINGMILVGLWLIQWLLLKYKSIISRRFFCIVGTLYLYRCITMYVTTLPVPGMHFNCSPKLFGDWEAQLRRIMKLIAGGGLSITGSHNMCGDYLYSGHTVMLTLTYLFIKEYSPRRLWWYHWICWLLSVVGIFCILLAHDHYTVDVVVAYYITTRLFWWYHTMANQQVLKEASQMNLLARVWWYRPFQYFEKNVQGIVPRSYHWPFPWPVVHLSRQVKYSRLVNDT
Nature of the test: In vitro SMS1 pure enzyme inhibition, HPLC fluorogenic quantitative detecting method. Format: biochemical.
Source text: Referring to the above SMS2 inhibitory activity detection method, and using SMS1 pure enzyme instead of SMS2 pure enzyme for corresponding operation.
as §1
Part 4. Determination of SMS1 Median Inhibitory Concentration (IC50) and SMS1 Single Concentration (50 μM) Inhibitory Concentration of Alkoxybenzeno Five- or Six-Member Heterocyclic Amines (Scheme I-1˜I-38)
The experiment can be carried out with the corresponding concentration according to the operation similar to the determination of the median inhibitory concentration (IC50) of SMS2.

The subject of the next test is SMS. Conditions: reported weak inhibitory activity; cited from earlier work.

`FC(F)(F)c1ccc(COc2cccc3onc(Nc4cccnc4)c23)cc1` [Scheme I-15, 4-((4-Trifluoromethylbenzyl)oxy)-N-(pyridin-3-yl)benzo[d]isoxazole-3-amine] yielded an IC50 in test [1] above 10000 nM. The same molecule showed an inhibition at 50 µM in test [2] (single concentration 50 μM) of 9%.

Turning to `Cc1ccccc1COc1cccc2onc(Nc3cccnc3)c12` [Scheme I-10, 4-((2-methylbenzyl)oxy)-N-(pyridin-3-yl)benzo[d]isoxazol-3-amine], in test [1], the Selectivity ratio worked out at 140. Also, the IC50 was 498 nM in test [1] and 70000 nM in test [2]. For the same molecule, the inhibition at 50 µM in test [2] (single concentration 50 μM) stood at 41%.

`CCc1ccccc1COc1cccc2onc(Nc3cccnc3)c12` [Scheme I-1, 4-((2-ethylbenzyl)oxy)-N-(pyridin-3-yl)benzo[d]isoxazol-3-amine]: in test [1], the Selectivity ratio was 342 and half-maximal inhibition (IC50) required 117 nM. Also, in test [2], the IC50 came out at 40000 nM. For the same molecule, the inhibition at 50 µM in test [2] (single concentration 50 μM) came to 65%.

With `Clc1ccccc1COc1cccc2onc(Nc3cccnc3)c12` [Scheme I-7, 4-((2-chlorobenzyl)oxy)-N-(pyridin-3-yl)benzo[d]isoxazol-3-amine], in test [1], the Selectivity ratio is 292 and the IC50 turned out to be 270 nM. In addition, the IC50 in test [2] was 79000 nM. In test [2] (single concentration 50 μM), the “SMS1 Inhibition (50 μM)” value is on record as 41%.

Molecule `FC(F)(F)Oc1ccc(Cl)cc1COc1cccc2onc(Nc3cccnc3)c12` [Scheme I-3, 4-((5-chloro-2-(trifluoromethoxy)benzyl)oxy)-N-(pyridin-3-yl)benzo[d]isoxazol-3-amine] registered an IC50 in test [1] of 2000 nM. For the same molecule, the inhibition at 50 µM in test [2] (single concentration 50 μM) is 49%.

In test [1], `Cc1cccc(COc2cccc3onc(Nc4cccnc4)c23)c1` [Scheme I-11, 4-((3-methylbenzyl)oxy)-N-(pyridin-3-yl)benzo[d]isoxazol-3-amine] yielded an IC50 of 190 nM. The inhibition at 50 µM in test [2] (single concentration 50 μM) worked out at 20%.

`COc1ccccc1COc1cccc2onc(Nc3cccnc3)c12` [Scheme I-16, 4-((2-Methoxybenzyl)oxy)-N-(pyridin-3-yl)benzo[d]isoxazol-3-amine]: the Selectivity ratio in test [1] is 201. The half-maximal inhibitory concentration (IC50) in test [1] is 239 nM; in test [2], 48000 nM. In test [2] (single concentration 50 μM), this molecule returned an inhibition at 50 µM of 49%.

`Clc1ccc(COc2cccc3onc(Nc4cccnc4)c23)cc1` [Scheme I-9, 4-((4-chlorobenzyl)oxy)-N-(pyridin-3-yl)benzo[d]isoxazol-3-amine] came in with an IC50 in test [1] above 10000 nM. This molecule also returned an inhibition at 50 µM in test [2] (single concentration 50 μM) of 5%.

`Fc1ccc(COc2cccc3onc(Nc4cccnc4)c23)cc1` [Scheme I-6, 4-((4-fluorobenzyl)oxy)-N-(pyridin-3-yl)benzo[d]isoxazol-3-amine] displayed a half-inhibitory concentration (IC50) in test [1] of 1520 nM. Further, at 50 µM the inhibition in test [2] (single concentration 50 μM) was 7%.

Molecule `FC(F)(F)c1ccccc1COc1cccc2onc(Nc3cccnc3)c12` [Scheme I-13, 4-((2-Trifluoromethylbenzyl)oxy)-N-(pyridin-3-yl)benzo[d]isoxazole-3-amine] displayed an IC50 in test [1] of 255 nM. In addition, the inhibition at 50 µM in test [2] (single concentration 50 μM) is 21%.

`N#Cc1ccccc1COc1cccc2onc(Nc3cccnc3)c12` [Scheme I-22, 4-((2-Cyanobenzyl)oxy)-N-(pyridin-3-yl)benzo[d]isoxazol-3-amine]: the IC50 in test [1] turned out to be 4140 nM. For the same molecule, in test [2] (single concentration 50 μM), 50 µM produced 4% inhibition.

For `FC(F)(F)Oc1cccc(COc2cccc3onc(Nc4cccnc4)c23)c1` [Scheme I-20, 4-((3-Trifluoromethoxybenzyl)oxy)-N-(pyridin-3-yl)benzo[d]-isoxazol-3-amine], the IC50 in test [1] stood at 1270 nM. This molecule also returned an inhibition at 50 µM in test [2] (single concentration 50 μM) of 30%.

As for `Clc1cccc(Cl)c1COc1cccc2onc(Nc3cccnc3)c12` [Scheme I-26, 4-((2,6-Dichlorobenzyl)oxy)-N-(pyridin-3-yl)benzo[d]isoxazol-3-amine], the Selectivity ratio in test [1] was 886. Also, the IC50 in test [1] stood at 79 nM; in test [2], 70000 nM. Besides, at 50 µM the inhibition in test [2] (single concentration 50 μM) was 25%.

`Fc1cccc(COc2cccc3onc(Nc4cccnc4)c23)c1` [Scheme I-5, 4-((3-fluorobenzyl)oxy)-N-(pyridin-3-yl)benzo[d]isoxazol-3-amine]: 156 nM corresponded to half-maximal inhibition in test [1] (IC50). The same molecule came in with an inhibition at 50 µM in test [2] (single concentration 50 μM) of 6%.

On to `S=C(S)OC1CC2CC1C1CCCC21` (stereo not drawn) [Scheme D609], for which, in the test with SMS, the IC50 is 375000 nM.
